Measured values taken from US20190022189A1, “USE OF SERELAXIN TO REDUCE GDF-15” (NOVARTIS AG, priority 2014, published 2019).
Marks after values point to notes of the source that are not given here.

Assays:
GDF-15 [1] = details: patients with symptomatic heart failure (Anand et al.); cited from earlier work
[2] = system: B-type natriuretic peptide; details: patients with symptomatic heart failure (Anand et al.); cited from earlier work
GDF-15 [3] = assay: GDF-15 in the pulmonary hemodynamic study, 20 hour infusion (Example 2); type: in vivo, human
Method: (§1) In a separate study, the pulmonary hemodynamic effects (e.g., the pulomonary load) of serelaxin were evaluated in patients hospitalized with acute heart failure (Ponikowski et al., Eur Heart J 35:431-441 (2014)). Patients were randomized 1:1 to serelaxin or placebo, initially stabilized, then infused with serelaxin at a dose of 30 ug/kg/d for 20 hours. Pulmonary congestion at the time of presentation was a required inclusion criterion. Time elapsed from hospital admission to the beginning of intravenous infusion of serelaxin was less than 29 hours. Serelaxin exerted rapid hemodynamic effects; changes were detected within the first 30 minutes of infusion and were sustained throughout the treatment period. Serelaxin reduced the time weighted average pulmonary capillary wedge pressure from baseline in the first eight hours of treatment (p=0.0001) as well as during hours 8-20 (p=0.03).
GDF-15 was measured in blood samples collected in serum separating tubes. The serum samples were centrifuged within two hours and plasma was stored at −20° C. or lower, followed by storage at −80° C. until the analysis was performed. GDF-15 was measured using a pre-commercial electrochemiluminescent immunoassay provided by Roche Diagnostics GmbH (Mannheim, Germany). All samples from the same patient were analyzed at the same time at a certified central laboratory by personnel blinded to patient treatment and study data.

[4] = system: patients with acute heart failure; assay: Cox regression models of 180-day cardiovascular mortality in the acute heart failure trial; type: in vivo, human
Excerpt: Multivariable linear regression models were developed for the changes in biomarker levels from baseline to day 2 and 14 using baseline patient clinical characteristics and routine laboratory measures; backwards elimination in the placebo group was used, with p<0.10 as the criterion for retention in the model. Missing predictors were imputed with the treatment-group-specific median for continuous variables and mode for categorical variables. GDF-15 values were log-transformed. To allow consistency and comparability of models with and without biomarkers, missing follow-up biomarker levels were imputed using linear interpolation or as last observation carried forward if no following measure was available. The linearity of associations was assessed using restricted cubic splines, and if significant non-linearity was found (at p<0.10), a dichotomized, trichotomized, linear spline or quadratic or cubic polynomial transformation was chosen based on the univariable Akaike's Information Criterion. The serelaxin effect on GDF-15 changes was then estimated with multivariable adjustment for covariates prognostic of these changes in the placebo group.
Associations of baseline biomarker values and changes with clinical outcomes were estimated with linear regression for dyspnea VAS AUC, and with Cox regression models for 60-day rehospitalization for heart failure or renal failure or cardiovascular death and for 180-day cardiovascular mortality. Linearity of associations of GDF-15 values with outcomes was assessed as above. Mean changes in biomarkers over time were estimated from repeated measures analysis of variance models, with no imputation for missing values.

[5] = system: patients hospitalized with acute heart failure; assay: Pulmonary hemodynamic effects in patients hospitalized with acute heart failure (Example 2); type: in vivo, human
Method: as §1
(§2) Pulmonary capillary wedge pressure (PCWP), mean pulmonary artery pressure (PAP), and pulmonary vascular resistance (PVR) were measured as well as NTproBNP and GDF-15 An analysis was performed of the association of GDF-15 and NTproBNP with these hemodynamic indices.

[6] = system: patients with acute heart failure; assay: Clinical outcomes in the acute heart failure trial (dyspnea, hospital stay, cardiovascular death); type: in vivo, human
Method: (§3) In an international, double-blind, placebo-controlled trial (Teerlink et al., Lancet 381:29-39 (2013)) the entire contents of which are herein incorporated by reference, patients displaying pulmonary congestion on chest radiograph and admitted to the hospital for acute heart failure were randomized to a 48 hour intravenous infusion of placebo or 30 μg/kg/d serelaxin. Time elapsed from arrival to the hospital to the intravenous administration of serelaxin was less than nine hours. […] The 48 hour infusion of serelaxin reduced cardiovascular death at 180 days ([…]). No previous intervention outcome trial in patients with acute heart failure has shown a beneficial effect on post discharge mortality.
Changes in patient-reported dyspnea were assessed through day 5 as the area under the change from baseline in visual analog scale score through day 5, where the worst possible score was assigned following death or worsening heart failure (dyspnea VAS AUC). Reasons for rehospitalization through day 60 and causes of deaths through day 180 were adjudicated centrally by a blinded endpoint committee.

GDF-15 [7] = assay: Serum GDF-15 by electrochemiluminescent immunoassay in placebo-controlled acute heart failure trial (Example 1); type: in vivo, human
Method: as §3
Blood samples for biomarker analysis were collected in serum separating tubes prior to initiation of serelaxin or placebo (baseline) and at days 2, 5, 14, and 60. ‘The serum samples were centrifuged within 30 to 60 minutes of collection following visualization of a clot, frozen at −20° C. for up to four weeks, then sent on dry ice to a central laboratory for storage at −80° C. until the analysis was performed. GDF-15 was measured in the samples using a pre-commercial electrochemiluminescent immunoassay provided by Roche Diagnostics GmbH (Mannheim, Germany). All samples from the same patient were analyzed at the same time at a certified central laboratory by personnel blinded to patient treatment and study data. The reporting range for GDF-15 was 400 to 20,000 ng/L.
Multivariable linear regression models were developed for the changes in GDF-15 levels from baseline to days 2 and 14 using baseline patient clinical characteristics and routine laboratory measures; backwards elimination in the placebo, group was used, with p<0.10 as the criterion for retention in the model. Missing predictors were imputed with the treatment-group-specific median for continuous variables and mode for categorical variables. GDF-15 values were log-transformed. The linearity of associations was assessed using restricted cubic splines, and if significant non-linearity was found (at p<0.10), a dichotomized, trichotoniized, linear spline or quadratic or cubic polynomial transformation was chosen based on the univariable Akaike's Information Criterion. Adjusted R^2 values from 5-fold cross-validations are presented. The serelaxin effect on biomarker changes was then estimated in all patients with multivariable adjustment for covariates prognostic of these changes in the placebo group.

NTproBNP = NTproBNP in the pulmonary hemodynamic study (Example 2); type: in vivo, human; details: 20 hour infusion; p=0.037
Method: as §1, §2

[8] = system: patients with acute heart failure; details: Phase 3 trial in acute heart failure (Teerlink et al.); cited from earlier work
[9] = 30 ug/kg/d infusion for 20 hours

CCCCC(=O)N(Cc1ccc(-c2ccccc2-c2nnn[nH]2)cc1)[C@H](C(=O)O)C(C)C [Valsartan]
effect on GDF-15 (GDF-15 [1]): no effect
heart failure biomarker B-type natriuretic peptide [2]: lower

Serelaxin
GDF-15 levels versus placebo (GDF-15 [3]; [9]): significantly decreased
reduction of GDF-15 geo-mean from baseline (GDF-15 [3]; [9]): 16%
GDF-15 treatment difference in favor of serelaxin versus placebo (GDF-15 [3]; 30 ug/kg/d infusion for 20 hours, p=0.0204): 18%
baseline median GDF-15 (GDF-15 [3]; baseline, serelaxin group): 3260 ng/L
HR, CV death through Day 180 ([4]; adjusted for baseline GDF-15 and change in GDF-15 from baseline to Day 2): 0.832
HR, CV death through Day 180 ([4]; adjusted for baseline GDF-15 and change in GDF-15 from baseline to Day 14, N = 1037): 0.847
HR, CV death through Day 180 ([4]; adjusted for change in GDF-15 from baseline to Day 2 and multivariable predictors of outcome): 0.763
HR, CV death through Day 180 ([4]; adjusted for change in GDF-15 from baseline to Day 14 and multivariable predictors of outcome, N = 1037): 0.753
hazard ratio for 180-day CV mortality ([4]; multivariable adjustment for baseline covariates, without GDF-15 change, 95% CI 0.430-1.028): 0.665
hazard ratio for 180-day CV mortality ([4]; unadjusted for other baseline covariates, 95% CI 0.403-0.950): 0.619
pulmonary vascular resistance ([5]; 30 ug/kg/d infusion): concomitant decrease
systemic vascular resistance ([5]; 30 ug/kg/d infusion): concomitant decrease
time weighted average pulmonary capillary wedge pressure from baseline ([5]; first eight hours of treatment, p=0.0001): reduced
time until hemodynamic changes were detected ([5]; from start of infusion, sustained throughout the treatment period): ≤ 30 min
time weighted average pulmonary capillary wedge pressure from baseline ([5]; hours 8-20, p=0.03): reduced
improvements in PCWP, PAP and PVR compared to placebo ([5]; over the 20 hour infusion period, all p values <0.005): favored serelaxin
systolic and diastolic pulmonary arterial pressure ([5]; p=0001 at four hours): significantly lowered
cardiovascular death at 180 days ([6]; 48 hour infusion, p=0.28): reduced
patient-reported general well-being ([6]; 48 hour iv infusion 30 μg/kg/d): improvements
primary dyspnea efficacy endpoint, Visual Acuity Scale area under the curve ([6]; 48 hour iv infusion 30 μg/kg/d vs placebo, p=0.007): significantly improved
reduction of time in the intensive care or coronary care unit ([6]; vs placebo, p=0.03): 0.4 days
reduction of average length of hospital stay ([6]; vs placebo, p=0.04): 0.9 days
GeoMean GDF-15 (GDF-15 [7]; Baseline (before start of infusion)): 4380.3 ng/L
Median GDF-15 (GDF-15 [7]; Baseline (before start of infusion), serelaxin group n = 530): 4115.5 ng/L
GDF-15 GeoMean Change vs Baseline (GDF-15 [7]; Day 2): −21.6%*
GeoMean GDF-15 (GDF-15 [7]; Day 2, 48 hour iv infusion 30 μg/kg/d): 3395.6 ng/L
Median GDF-15 (GDF-15 [7]; Day 2, 48 hour iv infusion 30 μg/kg/d, n = 530): 3341.0 ng/L
GDF-15 GeoMean Change vs Baseline (GDF-15 [7]; Day 5): −14.95* %
GeoMean GDF-15 (GDF-15 [7]; Day 5, 48 hour iv infusion 30 μg/kg/d): 3690.3 ng/L
Median GDF-15 (GDF-15 [7]; Day 5, 48 hour iv infusion 30 μg/kg/d, n = 530): 3584.5 ng/L
GDF-15 GeoMean Change vs Baseline (GDF-15 [7]; Day 14): −20.2%*
GeoMean GDF-15 (GDF-15 [7]; Day 14, 48 hour iv infusion 30 μg/kg/d): 3397.0 ng/L
Median GDF-15 (GDF-15 [7]; Day 14, 48 hour iv infusion 30 μg/kg/d, n = 530): 3296.0 ng/L
GDF-15 GeoMean Change vs Baseline (GDF-15 [7]; Day 60): −26.4%*
GeoMean GDF-15 (GDF-15 [7]; Day 60, 48 hour iv infusion 30 μg/kg/d): 3114.0 ng/L
Median GDF-15 (GDF-15 [7]; Day 60, 48 hour iv infusion 30 μg/kg/d, n = 530): 2981.5 ng/L
GDF-15 levels versus placebo, both in addition to standard of care (GDF-15 [7]; day 14): approached statistical significance
GDF-15 level (GDF-15 [7]; day 60): trend towards lower
GDF-15 levels versus placebo, both in addition to standard of care (GDF-15 [7]; days 2 and 5): significantly lower
decrease in GDF-15 (GDF-15 [7]; to day 14): faster decrease
NTproBNP (NTproBNP): significantly reduced
dyspnea [8]: rapid relief
mortality at six months [8]: reduced
